This is an account of results in patent publication US4983328A, “N-(4-(3-aminopropyl)aminobutyl)-2-(ω-gua nidino-fatty-acid-amido(-2-substituted-ethanamide, salt thereof, and process for preparation thereof” (Bristol-Myers Company, priority 1981, dated 1991).

In brackets after ≈: the same amount, converted by molar mass.

In data set [1] the test system is mouse leukemia L-1210 cells. Put plainly: growth inhibitory activity to cancer cells in vitro (L-1210, 48 hours). The data set is classed as cell-based. The conditions noted are these: for inhibition at 1.25 µg/mL: L1210, 1.25 mcg/ml; for inhibition at 1.25 µg/mL / inhibition at 2.5 µg/mL / inhibition at 5 µg/mL / inhibition at 10 µg/mL / inhibition at 20 µg/mL / inhibition at 40 µg/mL: read-out: Growth inhibition (%), (1-T/C) × 100; for inhibition at 2.5 µg/mL: L1210, 2.5 mcg/ml; for inhibition at 5 µg/mL: L1210, 5 mcg/ml; for inhibition at 10 µg/mL: L1210, 10 mcg/ml; for inhibition at 20 µg/mL: L1210, 20 mcg/ml; for inhibition at 40 µg/mL: L1210, 40 mcg/ml; for IC50: L1210, L-1210 cells, read-out: 50% inhibitory concentration. The method, then: DBA/2 mice were implanted with 10^5 mouse leukemia L-1210 cells. The ascites collected asceptically from the mice after 4 days of feeding was washed three times with physiological saline to obtain L-1210 cells, which was then suspended in RPMI 1640 culture medium [G. E. Moore, Journal of the American Medical Association, Vol. 199, 519 (1967); H. J. Morton, In Vitro, Vol. 6, 89 (1970)] to which 10% fetal calf serum and 5 μM 2-mercaptoethanol had been added, and the resulting suspension was diluted to 5×10^4 L-1210 cells per 0.9 ml. A microplate carrying 0.9 ml of the cell suspension and 0.1 ml of the culture medium containing the sample being tested was kept in a carbon dioxide incubator at 37° C. After 48 hours of cultivation, the number of cells was measured by means of a Coulter Counter (Coulter Electronics, Inc., U.S.A.) to obtain the growth inhibition (%)=(1--T/C )×100=[1-(number of grown cells in medium containing sample/(number of grown cells in control medium)]×100. The 50% growth inhibitory concentration was calculated from the values of growth inhibition at varied sample concentrations. The results of tests on typical compounds of this invention for the growth inhibition of L-1210 cells were as shown in Table 6.

A short description of data set [2]: acute toxicity in mice (single intraperitoneal administration). The conditions noted are these: mouse, in vivo, ip; mice, single i.p.; read-out: LD50 (median lethal dose on single administration). The method, then:
(§1) In Table 8 median lethal doses (LD50) of typical compounds of this invention are shown, measured in mice upon single intraperitoneal administration, as well as maximum tolerated doses in terms of total dose when a fixed amount per unit body weight was administered intraperitoneally to mice once a day for 6 consecutive days.
*Median lethal dose on single administration.

Data set [3] can be described thus: cumulative toxicity in mice (maximum tolerated dose, once a day for 6 consecutive days). The conditions noted are these: mouse, in vivo, ip, i.p. once a day for 6 consecutive days, total dose, read-out: Maximum Tolerated Dose (total dose not causing death). The procedure:
as §1
**Maximum value of the total dose not causing death when a fixed amount
per unit body weight is administered to mice once a day for 6 consecutive

Data set [4] can be described thus: chemical stability: retention (%) after heating at 60° C. for 4 hours, by HPLC. Format: physicochemical. The method, then: The chemical stability of the present compound was evaluated by determining the retention (%) after heating at 60° C. for 4 hours. In Table 5 are shown the test results together with those for spergualin as reference. The retention was determined by means of high performance liquid chromatography (HPLC). The column was packed with Nucleosil® 5C18. The solvent used for spergualin was a mixture (6:94) of acetonitrile -0.01M sodium pentanesulfonate +0.01M Na2 HPO4 (pH 3), while that for the compounds of this invention was a mixture of acetonitrile -0.005M sodium pentanesulfonate ±0.01M Na2 HPO4 (pH 3). The mixture ratio in the latter case was varied for each particular compound. For instance, a mixing ratio of 10:90 was used for Compound No. 9, while that of 7:93 for Compound No. 22.

The next data set has as its system mouse leukemia L-1210. As to the kind of experiment: therapeutic effect on implanted cancer in mice (L-1210, survival over 30 days). The data set is classed as in vivo, mouse (BDF1). To be noted: L1210, ip, 720 h, 6 days; for responders at 1.56 mg/kg / response vs control in vivo at 1.56 mg/kg: 1.56 mg/kg/day i.p.; for responders at 3.13 mg/kg / response vs control in vivo at 3.13 mg/kg: 3.13 mg/kg/day i.p.; for responders at 6.25 mg/kg / response vs control in vivo at 6.25 mg/kg: 6.25 mg/kg/day i.p.; for responders at 12.5 mg/kg / response vs control in vivo at 12.5 mg/kg: 12.5 mg/kg/day i.p.; for responders at 25 mg/kg / response vs control in vivo at 25 mg/kg: 25 mg/kg/day i.p. An excerpt:
BDF1 strain male mice (5 weeks old) were each inoculated intraperitoneally with 10^5 mouse leukemia L-1210 cells and treated once a day by intraperitoneal injection with a test compound dissolved in physiological saline for 6 consecutive days beginning from the day of inoculation. The mice were then observed for 30 days to determine the rate of prolongation of survival period=100×T/C=100×(average survival days of treated group)/(average survival days of control group).

[5] abbreviates: read-out: Number of mice survived for 30 days (converted).
[6] abbreviates: read-out: Prolongation of survival period (%), T/C × 100.

Take `COC(NC(=O)CCCNC(=N)N)C(=O)NCCCCNCCCN` (centres unmarked) [Compound 7, N-[4-(3-aminopropyl)aminobutyl]-2-(4-guanidinobutanamido)-2-methoxyethanamide]: in data set [1], the inhibition at 1.25 µg/mL is 38.7%, the inhibition at 2.5 µg/mL turned out to be 80.7%, the inhibition at 5 µg/mL worked out at 98.5% and the inhibition at 10 µg/mL worked out at 99.8%. Further, in data set [1], the inhibition at 20 µg/mL came to 99.9%, the inhibition at 40 µg/mL was 99.3% and the IC50 was 1.5 µg/mL (≈ 4.17 µM).

As for `N=C(N)NCCCC(=O)NC(O)C(=O)NCCCCNCCCN` (centres unmarked) [Compound 1, N-[4-(3-aminopropyl)aminobutyl]-2-(4-guanidinobutanamido)-2-hydroxyethanamide], in data set [1], the inhibition at 2.5 µg/mL was 52.2%, the inhibition at 5 µg/mL was 89.3%, the inhibition at 10 µg/mL stood at 101% and the inhibition at 20 µg/mL worked out at 100%. Also, in data set [1], the IC50 was determined as 2.4 µg/mL (≈ 6.95 µM). Besides, the LD50 in data set [2] is more than 50 mg/kg. The MTD in data set [3] is more than 300 mg/kg.

Take `COC(NC(=O)C[C@@H](O)CCCCNC(=N)N)C(=O)NCCCCNCCCN` (single isomer, unassigned; (+)) [Compound 22 (+), (+)-11-O-methylspergualin]: the “Stability [Retention (%)]” value in data set [4] (pH 2) is on record as 79.7%; in data set [4] (pH 4), 100%; in data set [4] (pH 5), 100%; in data set [4] (pH 6), 100%; in data set [4] (pH 7), 100%; in data set [4] (pH 8), 100%. The “Stability [Retention (%)]” value was 100% in data set [4] (pH 9, 240 min) and 95.6% in data set [4] (pH 10, 240 min).

As for `COC(NC(=O)CCCCCCNC(=N)N)C(=O)NCCCCNCCCN` (single isomer, unassigned; (-)) [Compound 9 (-), (-)-N-[4-(3-aminopropyl)aminobutyl]-2-(7-guanidinoheptanamido)-2-methoxyethanamide], in the data set on mouse leukemia L-1210 (0.10 mg/kg/day i.p., read-out: Number of mice survived for 30 days), the responders at 0.1 mg/kg is 0%. Also, the response vs control in vivo at 0.1 mg/kg in the data set on mouse leukemia L-1210 (0.10 mg/kg/day i.p., read-out: Prolongation of survival period (%), T/C × 100) amounted to 110%. In the data set on mouse leukemia L-1210 (0.20 mg/kg/day i.p., read-out: Number of mice survived for 30 days (converted)), the responders at 0.2 mg/kg was 0%. The response vs control in vivo at 0.2 mg/kg in the data set with mouse leukemia L-1210 (0.20 mg/kg/day i.p., read-out: Prolongation of survival period (%), T/C × 100) was determined as 127%. In addition, in the data set with mouse leukemia L-1210 (0.39 mg/kg/day i.p., read-out: Number of mice survived for 30 days (converted)), the responders at 0.39 mg/kg was 50%. Further, the response vs control in vivo at 0.39 mg/kg in the data set on mouse leukemia L-1210 (0.39 mg/kg/day i.p., read-out: Prolongation of survival period (%), T/C × 100) is more than 342%. In addition, the responders at 0.78 mg/kg in the data set on mouse leukemia L-1210 (0.78 mg/kg/day i.p., read-out: Number of mice survived for 30 days (converted)) is 50%. In the data set on mouse leukemia L-1210 (0.78 mg/kg/day i.p., read-out: Prolongation of survival period (%), T/C × 100), the response vs control in vivo at 0.78 mg/kg was more than 370%. Further, in the data set with mouse leukemia L-1210 (setting [5]), the responders at 1.56 mg/kg was 50%, the responders at 3.13 mg/kg is 75%, the responders at 6.25 mg/kg was 25% and the responders at 12.5 mg/kg is 50%. Moreover, the responders at 25 mg/kg with mouse leukemia L-1210 (setting [5]) is 0%. In the data set on mouse leukemia L-1210 (setting [6]), the response vs control in vivo at 1.56 mg/kg was more than 356%, the response vs control in vivo at 3.13 mg/kg was more than 411%, the response vs control in vivo at 6.25 mg/kg is more than 336% and the response vs control in vivo at 12.5 mg/kg was more than 390%. For the same compound, the response vs control in vivo at 25 mg/kg in the data set with mouse leukemia L-1210 (setting [6]) came to 0%.

With `N=C(N)NCCCC[C@H](O)CC(=O)NC(O)C(=O)NCCCCNCCCN` (single isomer, unassigned; (-)) [(-)-spergualin, reference compound], the fraction remaining (usually what is left of the initial amount, in per cent) at 4 h amounted to 88.1% in data set [4] (pH 2, pH 2); 88% in data set [4] (pH 3, pH 3); 87.8% in data set [4] (pH 4, pH 4); 82.5% in data set [4] (pH 5, pH 5); 46.5% in data set [4] (pH 6, pH 6); 12.6% in data set [4] (pH 7, pH 7). Moreover, the fraction remaining at 4 h in data set [4] (pH 8, pH 8) stood at 6.1%; in data set [4] (pH 9, pH 9) it was 0%.

Compound `COC(NC(=O)C[C@@H](O)CCCCNC(=N)N)C(=O)NCCCCNCCCN` (single isomer, unassigned; (-)) [22 (-), (-)-11-O-methylspergualin] yielded an amount remaining at 4 h in data set [4] (pH 2, pH 2) of 79.7%. In data set [4] (pH 4, pH 4), this compound gave a fraction remaining at 4 h of 100%. In data set [4] (pH 5, pH 5), this compound showed a share remaining at 4 h of 100%. Also, the share remaining at 4 h in data set [4] (pH 6, pH 6) is 100%. Also, in data set [4] (pH 7, pH 7), the fraction remaining at 4 h was 100%. Also, the share remaining at 4 h in data set [4] (pH 8, pH 8) stood at 100%. This compound also returned an amount remaining at 4 h in data set [4] (pH 9, pH 9) of 97.6%. The compound also showed a share remaining at 4 h in data set [4] (pH 10, pH 10) of 95.7%. In the data set with mouse leukemia L-1210 (setting [5]), the responders at 1.56 mg/kg is 0%, the responders at 3.13 mg/kg was 20%, the responders at 6.25 mg/kg is 80% and the responders at 12.5 mg/kg was 80%. Also, in the data set on mouse leukemia L-1210 (setting [5]), the responders at 25 mg/kg is 100%. For the same compound, in the data set with mouse leukemia L-1210 (setting [6]), the response vs control in vivo at 1.56 mg/kg amounted to 177%, the response vs control in vivo at 3.13 mg/kg is more than 290%, the response vs control in vivo at 6.25 mg/kg was more than 400% and the response vs control in vivo at 12.5 mg/kg is more than 408%. Further, in the data set on mouse leukemia L-1210 (setting [6]), the response vs control in vivo at 25 mg/kg was more than 423%.

On to `CCCCOC(NC(=O)CCCCCCNC(=N)N)C(=O)NCCCCNCCCN` (centres unmarked) [Compound 13, N-[4-(3-aminopropyl)aminobutyl]-2-(7-guanidinoheptanamido)-2-butoxyethanamide], for which the amount remaining at 4 h in data set [4] (pH 2, pH 2) came out at 72.4%. In data set [4] (pH 3, pH 3), the fraction remaining at 4 h is 90.1%. Moreover, the amount remaining at 4 h in data set [4] (pH 4, pH 4) was found to be 100%. In data set [4] (pH 6, pH 6), this compound came in with a share remaining at 4 h of 100%. In addition, in data set [4] (pH 8, pH 8), the amount remaining at 4 h is 100%. In data set [4] (pH 9, pH 9), the fraction remaining at 4 h was 98%. Further, the share remaining at 4 h in data set [4] (pH 10, pH 10) is 96%. In data set [1], the inhibition at 1.25 µg/mL turned out to be 17%, the inhibition at 2.5 µg/mL was found to be 21.3%, the inhibition at 5 µg/mL is 24% and the inhibition at 10 µg/mL was determined as 33.2%. In data set [1], the inhibition at 20 µg/mL came to 65.7%, the inhibition at 40 µg/mL came to 72.5% and the IC50 worked out at 14 µg/mL (≈ 31.6 µM).
